Laboratory results taken from patent US6455550B1, “N-alkanoylphenylalanine derivatives” (Hoffmann-La Roche Inc., priority 1997, dated 2002).
pIC50: −log10 of the molar value. Read-outs that look alike come from different tables or passages of the source.

Legend:
[1] = molecular target: T1, VLA-4 (α4β1 integrin) binding to immobilized VCAM-1 (Homo sapiens, UniProt P05556+P13612); assay: VLA-4/VCAM-1 Screening Assay (solid-phase, dual antibody ELISA); conditions: Ramos cell-derived VLA-4, recombinant human VCAM-1 coated plates, 2 hr at 37° C.; for pIC50: read-out: IC50
T1 construct: followed by 10 μl of Ramos cell-derived VLA-4; endogenous in cells; host or cells: Ramos cells (VLA-4 preparation derived from the cells)
How it was run: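 Recombinant human VCAM-1 is coated onto plates and Ramos cell-derived VLA-4 is added with compound (final DMSO 5%) in Tris buffer pH 7.4 with 1 mM MnCl2 and 1 mg/mL BSA, 2 hr at 37° C. Bound VLA-4 is detected by anti-β1 antibody, HRP anti-mouse IgG and K-Blue colorimetry. Results are % inhibition of total binding.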

[2] = molecular target: T2, cell-surface VLA-4 (α4β1 integrin) on Ramos cells binding to immobilized VCAM-1 (Homo sapiens, UniProt P05556+P13612); assay: Ramos (VLA-4)/VCAM-1 Cell-Based Screening Assay (cell adhesion); conditions: Calcein-AM labeled Ramos cells, VCAM-1 coated plates, 45 min at room temperature; for pIC50: read-out: IC50 in Ramos Cell Based Assay; for IC50: IC50 in Ramos Cell Based Assay (nM)
T2 construct: Ramos cells bearing cell-surface VLA-4; endogenous in cells; host or cells: Ramos cells (VLA-4); VCAM-1 purified from CHO cell culture media
Source text: Calcein-AM was purchased from Molecular Probes Inc.
VLA-4 (α4β1 integrin) antagonist activity, defined as ability to compete with cell-surface VLA-4 for binding to immobilized VCAM-1, was quantitated using a Ramos-VCAM-1 cell adhesion assay. Ramos cells bearing cell-surface VLA-4, were labeled with a fluorescent dye (Calcein-AM) and allowed to bind VCAM-1 in the presence or absence of test compounds.
Initially, this entailed coating 96 well plates (Nunc Maxisorp) with recombinant human VCAM-1 (100 ng in 100 μl PBS), sealing each plate and allowing the plates to stand at 4° C for Å18 hr. The VCAM-coated plates were subsequently washed twice with 0.05% Tween-20 in PBS, and then blocked for 1hr (room temperature) with 200 μl of Blocking Buffer (1% BSA/0.02% thimerosal) to reduce non-specific binding. Following the incubation with Blocking Buffer, plates were inverted, blotted and the remaining buffer aspirated. Each plate was then washed with 300 μl PBS, inverted and the remaining PBS aspirated.
Test compounds were dissolved in 100% DMSO and then diluted 1:25 in VCAM Cell Adhesion Assay Buffer (4 mM CaCl2, 4 mM MgCl2 in 50 mM TRIS-HCl, pH 7.5) (final DMSO=4%). […] 100 μl/well of each dilution was added to the VCAM-coated plates, followed by 100 μl of Ramos cells (200,000 cells/well in 1% BSA/PBS). […] Plates were inverted to remove non-adherent cells, blotted and 300 μl/well PBS added. Plates were again inverted, blotted and the remaining buffer gently aspirated. 100 μl Lysis Buffer (0.1% SDS in 50 mM TRIS-HCl, pH 8.5) was added to each well and agitated for 2 min on a rotary shaking platform.

T2 sequence (P13612 34-1032): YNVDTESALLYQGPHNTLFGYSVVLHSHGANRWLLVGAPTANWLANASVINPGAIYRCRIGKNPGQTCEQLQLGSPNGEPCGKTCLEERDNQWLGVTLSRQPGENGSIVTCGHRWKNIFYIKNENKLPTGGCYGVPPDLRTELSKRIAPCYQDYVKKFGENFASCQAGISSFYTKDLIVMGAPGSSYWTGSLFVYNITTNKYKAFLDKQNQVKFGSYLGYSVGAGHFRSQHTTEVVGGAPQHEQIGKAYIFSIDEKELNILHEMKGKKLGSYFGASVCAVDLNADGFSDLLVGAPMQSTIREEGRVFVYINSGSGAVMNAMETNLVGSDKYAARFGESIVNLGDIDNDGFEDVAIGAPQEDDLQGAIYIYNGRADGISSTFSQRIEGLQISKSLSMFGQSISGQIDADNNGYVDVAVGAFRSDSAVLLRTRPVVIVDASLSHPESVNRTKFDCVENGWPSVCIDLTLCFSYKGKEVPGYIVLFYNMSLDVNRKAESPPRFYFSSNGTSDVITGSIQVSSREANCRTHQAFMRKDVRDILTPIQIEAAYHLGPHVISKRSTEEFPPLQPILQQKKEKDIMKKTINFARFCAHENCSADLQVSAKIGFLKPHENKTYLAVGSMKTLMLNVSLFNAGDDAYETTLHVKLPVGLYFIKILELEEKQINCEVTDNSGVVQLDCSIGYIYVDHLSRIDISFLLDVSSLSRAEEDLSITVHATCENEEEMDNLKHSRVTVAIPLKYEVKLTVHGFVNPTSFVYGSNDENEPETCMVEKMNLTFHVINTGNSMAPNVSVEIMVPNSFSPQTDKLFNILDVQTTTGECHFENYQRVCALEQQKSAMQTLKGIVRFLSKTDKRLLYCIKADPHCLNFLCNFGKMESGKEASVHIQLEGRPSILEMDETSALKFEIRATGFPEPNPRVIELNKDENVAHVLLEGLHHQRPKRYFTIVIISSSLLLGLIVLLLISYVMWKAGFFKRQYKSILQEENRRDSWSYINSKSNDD
T2 sequence (P05556 21-798): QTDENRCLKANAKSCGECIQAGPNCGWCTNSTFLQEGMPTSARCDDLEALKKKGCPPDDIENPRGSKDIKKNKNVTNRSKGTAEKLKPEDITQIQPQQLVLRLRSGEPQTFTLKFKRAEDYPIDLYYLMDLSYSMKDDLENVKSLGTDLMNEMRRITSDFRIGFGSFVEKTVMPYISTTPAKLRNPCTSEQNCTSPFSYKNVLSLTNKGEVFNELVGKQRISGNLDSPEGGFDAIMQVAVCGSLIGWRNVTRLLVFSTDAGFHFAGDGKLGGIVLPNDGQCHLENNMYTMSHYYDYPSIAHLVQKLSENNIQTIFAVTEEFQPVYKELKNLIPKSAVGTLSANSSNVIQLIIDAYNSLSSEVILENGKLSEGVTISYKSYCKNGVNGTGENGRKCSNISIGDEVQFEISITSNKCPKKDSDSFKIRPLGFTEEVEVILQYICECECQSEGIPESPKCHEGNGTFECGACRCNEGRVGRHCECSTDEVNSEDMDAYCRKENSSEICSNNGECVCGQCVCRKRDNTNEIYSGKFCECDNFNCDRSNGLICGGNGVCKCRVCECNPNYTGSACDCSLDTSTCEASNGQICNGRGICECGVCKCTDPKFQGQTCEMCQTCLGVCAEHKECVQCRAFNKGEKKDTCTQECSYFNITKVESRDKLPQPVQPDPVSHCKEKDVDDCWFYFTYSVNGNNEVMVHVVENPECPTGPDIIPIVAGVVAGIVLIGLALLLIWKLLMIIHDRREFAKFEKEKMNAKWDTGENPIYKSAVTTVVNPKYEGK
T1 sequence (P13612 34-1032): as the sequence (P13612 34-1032) above
T1 sequence (P05556 21-798): as the sequence (P05556 21-798) above

| melting point [°C] | Structure (SMILES) | pIC50 [1] | pIC50 [2] | also measured |
| --- | --- | --- | --- | --- |
| 136 to 140 | COCCC1(C(=O)N[C@@H](Cc2ccc(NC(=O)c3c(Cl)cccc3Cl)cc2)C(=O)O)CCCC1 [Example 398, 4-[[(2,6-Dichlorophenyl)carbonyl]amino]-N-[[1-(2-methoxyethyl)cyclopentyl]carbonyl]-L-phenylalanine] |  |  |  |
| 85 to 87 | COCCC1(C(=O)N[C@@H](Cc2ccc(NC(=O)c3c(Cl)cccc3Cl)cc2)C(=O)OC)CCCC1 [Example 397, 4-[[(2,6-Dichlorophenyl)carbonyl]amino]-N-[[1-(2-methoxyethyl)cyclopentyl]carbonyl]-L-phenylalanine Methyl Ester] |  |  |  |
| 136 to 140 | COc1ccc(CC2(C(=O)N[C@@H](Cc3ccc(NC(=O)c4c(Cl)cccc4Cl)cc3)C(=O)O)CCCCC2)cc1 [Example 47, 4-[[(2,6-Dichlorophenyl)carbonyl]amino]-N-[[1-(4-methoxyphenylmethyl)cyclohexyl]carbonyl]-L-phenylalanine] |  |  |  |
| 172 to 175 | COCCC1(C(=O)N[C@@H](Cc2ccc(NC(=O)c3cc(C#N)ccc3Cl)cc2)C(=O)OC)CCCC1 [Example 362, 4-[(2-Chloro-5-cyanophenylcarbonyl)amino]-N-[[1-(2-methoxyethyl)cyclopentyl]carbonyl]-L-phenylalanine Methyl Ester] |  |  |  |

Second part, the compound before the results:

| Structure (SMILES) | melting point [°C] | pIC50 [1] | pIC50 [2] | also measured |
| --- | --- | --- | --- | --- |
| COCCC1(C(=O)N[C@@H](Cc2ccc(NC(=O)c3cc(C#N)ccc3Cl)cc2)C(=O)O)CCCC1 [Example 363, 4-[(2-Chloro-5-cyanophenylcarbonyl)amino]-N-[[1-(2-methoxyethyl)cyclopentyl]carbonyl]-L-phenylalanine] | 169 to 172 | 9.19 | 7.96 |  |
| C[S+]([O-])CCC1(C(=O)N[C@@H](Cc2ccc(NC(=O)c3c(Cl)cccc3Cl)cc2)C(=O)O)CCCC1 (some centres unmarked) [Example 357] | 255 to 258 |  |  | IC50 [2]: 25 nM |
| COCCC1(C(=O)N[C@@H](Cc2ccc(N3C(=O)c4ccc(C#N)cc4C3=O)cc2)C(=O)O)CCCC1 [Example 371, 4-(5-Cyano-1,3-dioxo-2H-isoindol-2-yl)-N-[[1-(2-methoxyethyl)cyclopentyl]carbonyl]-L-phenylalanine] | 143 to 146 | 8.78 |  |  |
| CS(=O)(=O)CCC1(C(=O)N[C@@H](Cc2ccc(NC(=O)c3c(Cl)cccc3Cl)cc2)C(=O)O)CCCC1 [Example 358] | 184 to 187 |  |  | IC50 [2]: 75 nM |
| C=CCCC1(C(=O)N[C@@H](Cc2ccc(NC(=O)c3c(Cl)cccc3Cl)cc2)C(=O)O)CCCC1 [Example 271] |  |  | 7.17 | IC50 ([1]; IC50 nM): 0.55 nM |
| CC(C)(C)OC(=O)NCC(=O)NCCC1(C(=O)N[C@@H](Cc2ccc(NC(=O)c3c(Cl)cccc3Cl)cc2)C(=O)O)CCCC1 [Example 216, 4-[[(2,6-dichlorophenyl)carbonyl]amino]-N-[[1-[2-[[2-[[(1,1-dimethylethoxy)carbonyl]amino]-1-oxoethyl]amino]ethyl]cyclopentyl]carbonyl]-L-phenylalanine] |  | 8.54 | 6.45 |  |
